As a reminder, the melting point is the temperature of the solid-liquid transition.

The compound `O=[N+]([O-])c1ccccc1CC(=NO)NCc1ncc(C(F)(F)F)cc1Cl` yielded a melting point of 122 to 126 °C.

Regarding `CC(C#N)(NC(=O)c1c(Cl)cccc1Cl)c1ncc(C(F)(F)F)cc1Cl` (centres unmarked) [Compound 110, N-[1-(3-Chloro-5-trifluoromethyl-2-pyridyl)-1-cyanoethyl]-2,6-dichlorobenzamide], the melting point turned out to be 166 °C.

The values are drawn from patent publication US6630495B1, “Fungicides” (priority 1999, dated 2003).
